Data on four compounds can be found in patent US6638974B1, “Ascorbyl esters for the treatment of cancer” (University of South Florida, priority 1999, dated 2003).

Experiment [1] concerns HT29 cells. The experiment is described as follows: MTT cell viability assay, HT29. Conditions: for inhibition at 150 µM: Homo sapiens, HT-29, 150 μM (5 FU at a similar concentration), read-out: inhibition of HT29 cell growth (MTT); for effect on HT29 cells (MTT): similar concentrations and incubation times as As-P (24 and 48 hours). The class given is cell-based, human. Here is the method: (§1) HT-29, a human colon adenocarcinoma cell line, and CCD 18, a normal colon fibroblast, were obtained from the American Type Culture Collection (Rockville, Md.). The cells were grown in RPM1 1640 medium containing HEPES (20 mM), fetal bovine serum (10%), sodium bicarbonate (1 g/L), and penicillin (10 U/ml), streptomycin (10 ug/ml) at 37° C. in 5% CO2 humidified atmosphere.
(§2) The effect of various concentrations of As-P, ascorbate, palmitate or 5-fluorouracil (5 FU) on the viability and/or proliferation of HT29 or CCD 18 cells were evaluated. Cells were seeded in 96-well culture plates at 1×10^4 cells/well. The following day, As-P, ascorbate, palmitate or 5 FU were added at various concentrations. Cell viability was evaluated by the MTT assay 24 hours or 48 hours after the addition of the compounds. The effect of As-P on the cell cycle of HT29 cells was also investigated by flow cytometry.

Another experiment deals with CCD 18 cells. Nature of the experiment: MTT cell viability assay, CCD 18. Conditions: for inhibition at 150 µM: Homo sapiens, Fibroblast, read-out: inhibitory effect on CCD 18 fibroblasts (MTT); for effect on CCD18 fibroblasts (MTT): similar concentrations and incubation times as As-P (24 and 48 hours). The class given is cell-based, human. How it is done: as §1, §2
The subject of another experiment is Advanced colon cancer. Conditions: single agent; cited from earlier work.
Experiment [2] concerns HT29 cells. Nature of the experiment: Cell cycle analysis by flow cytometry, HT29. Type of experiment: cell-based, human. Particulars: 24 hours. How it is done: HT29 cells were seeded into 25 cm^2 flasks at a density of 1×10^4 cells/ml. 72 hours after seeding, As-P was added to HT29 cells in culture at a final concentration of 50 μM, 100 μM, 150 μM. Control cells received medium only. After 24 hours of incubation, cells were harvested and processed for flow cytometry DNA analysis.

Where two headings read alike, the source gives them in different places.

Take `O=c1[nH]cc(F)c(=O)[nH]1` [5 FU, 5-Fluorouracil, reference compound]: the “effect on growth of HT29 cells at 24 hours” value with HT29 cells [1] (24 hours) is given as “little or no inhibitory effect”. Also, in the experiment with HT29 cells [1] (48 hours, concentration not given), the “inhibition of growth of HT29 cells at 48 hours” value is given as “approximately 40%”. Besides, the inhibition at 150 µM with HT29 cells [1] (24 hours) worked out at 14%; in the experiment with HT29 cells [1] (48 hours), 40%. In addition, in the experiment on CCD 18 cells (24 hours), the “effect on growth of CCD 18 fibroblasts at 24 hours” value is recorded as “little or no inhibitory effect”. In addition, in the experiment with CCD 18 cells (48 hours), the “effect on CCD 18 cells at 48 hours” value is “little effect”. The response rate in the experiment with Advanced colon cancer is reported as 10-20%.

With `CCCCCCCCCCCCCCCC(=O)OC[C@H](O)[C@H]1OC(=O)C(O)=C1O` [As-P, L-Ascorbyl 6-palmitate], the inhibition at 150 µM was 73% with HT29 cells [1] (24 hours), 89% with HT29 cells [1] (48 hours), approximately 20% with CCD 18 cells (24 hours) and approximately 20% in the experiment on CCD 18 cells (48 hours). Besides, in the experiment on HT29 cells [1] (above 100 μM), the “effect on HT29 cells at higher concentrations” value is listed as “cytotoxic effect”. Moreover, the “effect on HT29 cell growth at lower concentrations” value in the experiment with HT29 cells [1] (below 100 μM) is reported as “stimulatory effect”. Also, the “effect on HT29 cell growth” value with HT29 cells [1] (higher concentrations (>125 μM)) is reported as “great inhibitory effect”; in the experiment on HT29 cells [1] (lower concentrations (<75 μM)) it was “slight stimulating effect”. The “effect on CCD 18 fibroblasts at lower concentrations” value with CCD 18 cells (lower concentrations) is listed as “stimulatory effect”. For the same compound, the “% G2 + M” value was determined as 7.8% in the experiment on HT29 cells [2] (HT29, 50 μM As-P); 4.3% with HT29 cells [2] (HT29, 100 μM As-P); 3.2% in the experiment on HT29 cells [2] (HT29, 150 μM As-P). Further, the “% G4/G1” value in the experiment on HT29 cells [2] (HT29, 50 μM As-P) is listed as 57.1%; with HT29 cells [2] (HT29, 100 μM As-P) it was 73.1%; with HT29 cells [2] (HT29, 150 μM As-P), 86.1%. Besides, the “% S” value with HT29 cells [2] (HT29, 50 μM As-P) stood at 35.1%; with HT29 cells [2] (HT29, 100 μM As-P) it was 22.6%; in the experiment on HT29 cells [2] (HT29, 150 μM As-P), 10.7%.

As to `O=C1O[C@H]([C@@H](O)CO)C(O)=C1O` [ascorbate, reference compound], in the experiment with HT29 cells [1], the “effect on HT29 cells (MTT)” value is reported as “no inhibitory effect”. Besides, the “effect on CCD18 fibroblasts (MTT)” value in the experiment with CCD 18 cells was “no inhibitory effect”.

For `CCCCCCCCCCCCCCCC(=O)O` [palmitate, reference compound], the “effect on HT29 cells (MTT)” value in the experiment on HT29 cells [1] is “no inhibitory effect”. The “effect on CCD18 fibroblasts (MTT)” value with CCD 18 cells is on record as “no inhibitory effect”.
